Laboratory results as given in PMC6409085, “Three odorant-binding proteins are involved in the behavioral response of Sogatella furcifera to rice plant volatiles” (PeerJ, 2019).
Several values for one entry are separate records, joined by “and”; a condition that tells them apart may be missing. Equal values may be shown once.

Key:
Test in all cases: biochemical
Assay type in all cases: binding
[1] = target: SfurOBP2 (Sogatella furcifera, UniProt V5T759)
Procedure, shortened: (§1)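 Fluorescence competitive binding with 1-NPN as reporter: 2.0 µM protein and 2.0 µM 1-NPN in 50 mM Tris-HCl pH 7.4, odorant added at 2–20 µM final. Excitation 337 nm, emission 390–490 nm read 2 min after addition, triplicates. Ki = IC50/(1 + [1-NPN]/K1-NPN).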

[2] = target: SfurOBP3 (Sogatella furcifera, UniProt V5T818); conditions: for Fluorescence competitive binding assay, fluorescence intensity: OBP3, three replicate columns
Procedure, shortened: as §1

[3] = target: SfurOBP1 (Sogatella furcifera, UniProt V5T8N5); conditions: for Fluorescence competitive binding assay, fluorescence intensity: OBP1, three replicate columns
Procedure, shortened: as §1

[4] = target: SfurOBP11 (Sogatella furcifera, UniProt V5T6E3)
Procedure, shortened: as §1

Chain of SfurOBP2 (V5T759 entry or part of it): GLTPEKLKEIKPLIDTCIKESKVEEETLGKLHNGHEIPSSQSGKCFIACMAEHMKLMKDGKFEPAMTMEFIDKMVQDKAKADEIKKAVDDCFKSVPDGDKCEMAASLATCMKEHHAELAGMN
Chain of SfurOBP11 (V5T6E3 entry or part of it): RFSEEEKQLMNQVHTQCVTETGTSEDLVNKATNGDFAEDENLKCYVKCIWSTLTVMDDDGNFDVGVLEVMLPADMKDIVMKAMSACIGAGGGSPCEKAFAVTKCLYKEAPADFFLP
Chain of SfurOBP1 (V5T8N5 entry or part of it): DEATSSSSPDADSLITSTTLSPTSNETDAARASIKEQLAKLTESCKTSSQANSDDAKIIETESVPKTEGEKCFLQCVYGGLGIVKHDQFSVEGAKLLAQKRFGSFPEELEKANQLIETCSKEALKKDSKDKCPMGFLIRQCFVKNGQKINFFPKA
Chain of SfurOBP3 (V5T818 entry or part of it): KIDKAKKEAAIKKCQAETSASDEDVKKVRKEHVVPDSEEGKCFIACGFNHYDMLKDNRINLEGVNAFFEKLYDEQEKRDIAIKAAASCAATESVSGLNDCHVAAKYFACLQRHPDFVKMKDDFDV

C/C(=C\CO)CCC[C@H](C)CCC[C@H](C)CCCC(C)C [plant alcohol]
IC50 ([1]; SfurOBP2, protein and 1-NPN both 2.0 µM, competitor 2-20 µM, read-out: IC50): > 20 µM
Fluorescence competitive binding assay, OBP2 (raw fluorescence reading) ([1]; ligand concentration 2 (unit not given), replicate column 1 of 3): 15935
Fluorescence competitive binding assay, OBP2 (raw fluorescence reading) ([1]; ligand concentration 2 (unit not given), replicate column 2 of 3): 15877
Fluorescence competitive binding assay, OBP2 (raw fluorescence reading) ([1]; ligand concentration 2 (unit not given), replicate column 3 of 3): 16010
Fluorescence competitive binding assay, OBP2 (raw fluorescence reading) ([1]; ligand concentration 4 (unit not given), replicate column 1 of 3): 16483
Fluorescence competitive binding assay, OBP2 (raw fluorescence reading) ([1]; ligand concentration 4 (unit not given), replicate column 2 of 3): 17483
Fluorescence competitive binding assay, OBP2 (raw fluorescence reading) ([1]; ligand concentration 4 (unit not given), replicate column 3 of 3): 15472
Fluorescence competitive binding assay, OBP2 (raw fluorescence reading) ([1]; ligand concentration 6 (unit not given), replicate column 1 of 3): 19539
Fluorescence competitive binding assay, OBP2 (raw fluorescence reading) ([1]; ligand concentration 6 (unit not given), replicate column 2 of 3): 15243
Fluorescence competitive binding assay, OBP2 (raw fluorescence reading) ([1]; ligand concentration 6 (unit not given), replicate column 3 of 3): 16407
Fluorescence competitive binding assay, OBP2 (raw fluorescence reading) ([1]; ligand concentration 8 (unit not given), replicate column 1 of 3): 19867
Fluorescence competitive binding assay, OBP2 (raw fluorescence reading) ([1]; ligand concentration 8 (unit not given), replicate column 2 of 3): 20728
Fluorescence competitive binding assay, OBP2 (raw fluorescence reading) ([1]; ligand concentration 8 (unit not given), replicate column 3 of 3): 17103
Fluorescence competitive binding assay, OBP2 (raw fluorescence reading) ([1]; ligand concentration 10 (unit not given), replicate column 1 of 3): 20161
Fluorescence competitive binding assay, OBP2 (raw fluorescence reading) ([1]; ligand concentration 10 (unit not given), replicate column 2 of 3): 19779
Fluorescence competitive binding assay, OBP2 (raw fluorescence reading) ([1]; ligand concentration 10 (unit not given), replicate column 3 of 3): 18765
Fluorescence competitive binding assay, OBP2 (raw fluorescence reading) ([1]; ligand concentration 12 (unit not given), replicate column 1 of 3): 19327
Fluorescence competitive binding assay, OBP2 (raw fluorescence reading) ([1]; ligand concentration 12 (unit not given), replicate column 2 of 3): 19917
Fluorescence competitive binding assay, OBP2 (raw fluorescence reading) ([1]; ligand concentration 12 (unit not given), replicate column 3 of 3): 19157
Fluorescence competitive binding assay, OBP2 (raw fluorescence reading) ([1]; ligand concentration 14 (unit not given), replicate column 1 of 3): 20768
Fluorescence competitive binding assay, OBP2 (raw fluorescence reading) ([1]; ligand concentration 14 (unit not given), replicate column 2 of 3): 19570
Fluorescence competitive binding assay, OBP2 (raw fluorescence reading) ([1]; ligand concentration 14 (unit not given), replicate column 3 of 3): 20399
Fluorescence competitive binding assay, OBP2 (raw fluorescence reading) ([1]; ligand concentration 16 (unit not given), replicate column 1 of 3): 18977
Fluorescence competitive binding assay, OBP2 (raw fluorescence reading) ([1]; ligand concentration 16 (unit not given), replicate column 2 of 3): 19385
Fluorescence competitive binding assay, OBP2 (raw fluorescence reading) ([1]; ligand concentration 16 (unit not given), replicate column 3 of 3): 18242
Fluorescence competitive binding assay, OBP2 (raw fluorescence reading) ([1]; ligand concentration 18 (unit not given), replicate column 1 of 3): 20374
Fluorescence competitive binding assay, OBP2 (raw fluorescence reading) ([1]; ligand concentration 18 (unit not given), replicate column 2 of 3): 20001
Fluorescence competitive binding assay, OBP2 (raw fluorescence reading) ([1]; ligand concentration 18 (unit not given), replicate column 3 of 3): 19071
Fluorescence competitive binding assay, OBP2 (raw fluorescence reading) ([1]; ligand concentration 20 (unit not given), replicate column 1 of 3): 20399
Fluorescence competitive binding assay, OBP2 (raw fluorescence reading) ([1]; ligand concentration 20 (unit not given), replicate column 2 of 3): 20700
Fluorescence competitive binding assay, OBP2 (raw fluorescence reading) ([1]; ligand concentration 20 (unit not given), replicate column 3 of 3): 18461
Fluorescence competitive binding assay, fluorescence intensity ([2]; ligand concentration 2): 81785 and 76872 and 83999
Fluorescence competitive binding assay, fluorescence intensity ([2]; ligand concentration 4): 101881 and 87909 and 87470
Fluorescence competitive binding assay, fluorescence intensity ([2]; ligand concentration 6): 71457 and 61006 and 51881
Fluorescence competitive binding assay, fluorescence intensity ([2]; ligand concentration 8): 71819 and 64171 and 69972
Fluorescence competitive binding assay, fluorescence intensity ([2]; ligand concentration 10): 63459 and 67080 and 84824
Fluorescence competitive binding assay, fluorescence intensity ([2]; ligand concentration 12): 64327 and 73125 and 73637
Fluorescence competitive binding assay, fluorescence intensity ([2]; ligand concentration 14): 85412 and 71741 and 71210
Fluorescence competitive binding assay, fluorescence intensity ([2]; ligand concentration 16): 78313 and 80279 and 70309
Fluorescence competitive binding assay, fluorescence intensity ([2]; ligand concentration 18): 77162 and 77902 and 55555
Fluorescence competitive binding assay, fluorescence intensity ([2]; ligand concentration 20): 68113 and 75065 and 101895
IC50 ([2]; SfurOBP3, protein and 1-NPN both 2.0 µM, competitor 2-20 µM, read-out: IC50): > 20 µM
Fluorescence competitive binding assay, fluorescence intensity ([3]; ligand concentration 2 (μM)): 7330 and 7109 and 7550
Fluorescence competitive binding assay, fluorescence intensity ([3]; ligand concentration 4 (μM)): 7885 and 9070 and 8350
Fluorescence competitive binding assay, fluorescence intensity ([3]; ligand concentration 6 (μM)): 9355 and 9996 and 9183
Fluorescence competitive binding assay, fluorescence intensity ([3]; ligand concentration 8 (μM)): 11640 and 10265 and 9349
Fluorescence competitive binding assay, fluorescence intensity ([3]; ligand concentration 10 (μM)): 10389 and 10452 and 10917
Fluorescence competitive binding assay, fluorescence intensity ([3]; ligand concentration 12 (μM)): 10679 and 10989 and 10151
Fluorescence competitive binding assay, fluorescence intensity ([3]; ligand concentration 14 (μM)): 12105 and 10979 and 11552
Fluorescence competitive binding assay, fluorescence intensity ([3]; ligand concentration 16 (μM)): 10141 and 15672 and 8010
Fluorescence competitive binding assay, fluorescence intensity ([3]; ligand concentration 18 (μM)): 13868 and 12649 and 12554
Fluorescence competitive binding assay, fluorescence intensity ([3]; ligand concentration 20 (μM)): 12803 and 13119 and 10975
IC50 ([3]; SfurOBP1, protein and 1-NPN both 2.0 µM, competitor 2-20 µM, read-out: IC50): > 20 µM
IC50 ([4]; SfurOBP11, protein and 1-NPN both 2.0 µM, competitor 2-20 µM, read-out: IC50): 3.5 µM
Fluorescence intensity, fluorescence competitive binding assay, OBP11 ([4]; ligand concentration 2, replicate 1): 16266
Fluorescence intensity, fluorescence competitive binding assay, OBP11 ([4]; ligand concentration 2, replicate 2): 15087
Fluorescence intensity, fluorescence competitive binding assay, OBP11 ([4]; ligand concentration 2, replicate 3): 17001
Fluorescence intensity, fluorescence competitive binding assay, OBP11 ([4]; ligand concentration 4, replicate 1): 17687
Fluorescence intensity, fluorescence competitive binding assay, OBP11 ([4]; ligand concentration 4, replicate 2): 17526
Fluorescence intensity, fluorescence competitive binding assay, OBP11 ([4]; ligand concentration 4, replicate 3): 17848
Fluorescence intensity, fluorescence competitive binding assay, OBP11 ([4]; ligand concentration 6, replicate 1): 16356
Fluorescence intensity, fluorescence competitive binding assay, OBP11 ([4]; ligand concentration 6, replicate 2): 18409
Fluorescence intensity, fluorescence competitive binding assay, OBP11 ([4]; ligand concentration 6, replicate 3): 17383
Fluorescence intensity, fluorescence competitive binding assay, OBP11 ([4]; ligand concentration 8, replicate 1): 17184
Fluorescence intensity, fluorescence competitive binding assay, OBP11 ([4]; ligand concentration 8, replicate 2): 18342
Fluorescence intensity, fluorescence competitive binding assay, OBP11 ([4]; ligand concentration 8, replicate 3): 18652
Fluorescence intensity, fluorescence competitive binding assay, OBP11 ([4]; ligand concentration 10, replicate 1): 18889
Fluorescence intensity, fluorescence competitive binding assay, OBP11 ([4]; ligand concentration 10, replicate 2): 17441
Fluorescence intensity, fluorescence competitive binding assay, OBP11 ([4]; ligand concentration 10, replicate 3): 20338
Fluorescence intensity, fluorescence competitive binding assay, OBP11 ([4]; ligand concentration 12, replicate 1): 19011
Fluorescence intensity, fluorescence competitive binding assay, OBP11 ([4]; ligand concentration 12, replicate 2): 18892
Fluorescence intensity, fluorescence competitive binding assay, OBP11 ([4]; ligand concentration 12, replicate 3): 20835
Fluorescence intensity, fluorescence competitive binding assay, OBP11 ([4]; ligand concentration 14, replicate 1): 21007
Fluorescence intensity, fluorescence competitive binding assay, OBP11 ([4]; ligand concentration 14, replicate 2): 21377
Fluorescence intensity, fluorescence competitive binding assay, OBP11 ([4]; ligand concentration 14, replicate 3): 20817
Fluorescence intensity, fluorescence competitive binding assay, OBP11 ([4]; ligand concentration 16, replicate 1): 23140
Fluorescence intensity, fluorescence competitive binding assay, OBP11 ([4]; ligand concentration 16, replicate 2): 21703
Fluorescence intensity, fluorescence competitive binding assay, OBP11 ([4]; ligand concentration 16, replicate 3): 22422
Fluorescence intensity, fluorescence competitive binding assay, OBP11 ([4]; ligand concentration 18, replicate 1): 27356
Fluorescence intensity, fluorescence competitive binding assay, OBP11 ([4]; ligand concentration 18, replicate 2): 26038
Fluorescence intensity, fluorescence competitive binding assay, OBP11 ([4]; ligand concentration 18, replicate 3): 25306
Fluorescence intensity, fluorescence competitive binding assay, OBP11 ([4]; ligand concentration 20, replicate 1): 26659
Fluorescence intensity, fluorescence competitive binding assay, OBP11 ([4]; ligand concentration 20, replicate 2): 25183
Fluorescence intensity, fluorescence competitive binding assay, OBP11 ([4]; ligand concentration 20, replicate 3): 25906
